Columns and labels:
E. coli [1] = test: Blood culture time to positivity (flip time), bead rescue vs no-rescue control; type: cell-based; settings: Meropenem 49 mg/L blood; for Flip time: Bead rescue; for Flip time in Days: Control (FA plus bottle)
Method: (§1) Day 1: Prepare overnight culture of test organism in blood/broth medium (50:50 blood:broth) and incubate at 37° C. in a shaking incubator.
Day 2: Prepare ten-fold serial dilution of overnight culture in blood/broth as required and incubate at 37° C. for 2 h for outgrowth.
Add 5 mL of spiked blood+beads (set 1) and 5 mL of spiked blood/Abx+beads (set 3) to blood culture bottles (BioMerieux SA culture bottle) using a vial adapter (West Pharmaceutical Services, Inc. PA, US).
Remove the adaptor and incubate the blood culture bottles in the automated blood culture cabinet (BacT/ALERT BioMerieux) for up to 5 days.
(§2) Record the “Flip” time of each bottle or bottle result at the end of 5 days incubation. The “Flip” time is when a bottle turns positive as determined by the automated blood culture cabinet, which records time to positivity.
(§3) Day 1: Prepare overnight culture of test organism in blood/broth medium (50:50 blood:broth) and incubate at 37° C. (or 30° C. for C. neoformans) in a shaking incubator.
(or 30° C. for C. neoformans) for 2 h for outgrowth. • Antibiotic added to whole blood (defibrinated horse blood) at required level • Whole blood as no-antibiotic control • Test dilution(s) of organism added to blood+antibiotic or blood only at 10 μL per mL of blood (sufficient prepared for experiment requirements) • 100 μL plate count sample taken (TO sample) • 2-hour incubation (static) at 37° C. (or 30° C. for C. neoformans) • 100 μL plate count sample taken (T2 sample) • 5 mL of spiked blood+abx or blood only added to blood culture bottle (using vial adapter) and incubation started (adapter removed) • 5 mL of spiked blood+abx or blood only (from same source) treated with Momentum Capture Beads as below: • 1. Capture Beads diluted in the relevant Capture Reagent—50 μL beads:700 μL capture reagent per clean-up • 2. 750 μL of diluted beads added to 50 mL conical centrifuge tube • 3. 5 mL of transfer medium added to tube • 4. 5 mL of spiked blood+abx or blood only added to tube • 5. […] Magnetise on V&P magnet for 10 min then remove supernatant • 7. Resuspend beads in 1 mL Detergent-free Wash Buffer (DWB) off magnet and transfer to 2 mL Eppendorf flip-top tube on DynaMag-2 magnet • 8. Magnetise for 3 min then remove supernatant • 9. Resuspend beads in 1 mL Detergent-free Wash Buffer (DWB) off magnet then replace on DynaMag-2 magnet • 10. Magnetise for 3 min then remove supernatant • 11. Resuspend beads in 1 mL DWB, add to new blood culture bottle (using vial adapter) and start incubation (adapter removed)
Momentum Capture Beads diluted in the relevant Capture Reagent—50 μL beads:700 μL capture reagent per clean-up • 2. 750 μL of diluted beads added to 50 mL conical centrifuge tube • 3. 5 mL of transfer medium added to tube • 4. 5 mL of spiked blood+abx or blood only added to tube • 5. […] Magnetise on V&P magnet for 10 min then remove supernatant • 7. Resuspend beads in 1 mL Detergent-free Wash Buffer (DWB) off magnet and transfer to 2 mL Eppendorf flip-top tube on DynaMag-2 magnet • 8. Magnetise for 3 min then remove supernatant • 9. Resuspend beads in 1 mL Detergent-free Wash Buffer (DWB) off magnet then replace on DynaMag-2 magnet • 10. Magnetise for 3 min then remove supernatant • 11. Resuspend beads in 1 mL DWB, add to an unused blood culture bottle (BioMerieux FA+culture bottle) using vial adapter and start incubation (adapter removed)

Klebsiella pneumoniae [2] = test: as above; type: cell-based; settings: Meropenem 49 mg/L blood; for Flip time: Bead rescue; for Flip time in Days: Control (FA plus bottle)
Method: as §3
(§4) (or 30° C. for C. neoformans) for 2 h for outgrowth. • Antibiotic added to whole blood (defibrinated horse blood) at required level • Whole blood as no-antibiotic control • Test dilution(s) of organism added to blood+antibiotic or blood only at 10 μL per mL of blood (sufficient prepared for experiment requirements) • 100 μL plate count sample taken (TO sample) • 2-hour incubation (static) at 37° C. (or 30° C. for C. neoformans) • 100 μL plate count sample taken (T2 sample) • 5 mL of spiked blood+abx or blood only added to blood culture bottle (using vial adapter) and incubation started (adapter removed) • 5 mL of spiked blood+abx or blood only (from same source) treated with Momentum Capture Beads as below: • 1. Capture Beads diluted in the relevant Capture Reagent—50 μL beads:700 μL capture reagent per clean-up • 2. 750 μL of diluted beads added to 50 mL conical centrifuge tube • 3. 5 mL of transfer medium added to tube • 4. 5 mL of spiked blood+abx or blood only added to tube • 5. Incubate on ITL TherMix (32.5° C./30 min/1000 rpm—ramped speed protocol) • 6. Magnetise on V&P magnet for 10 min then remove supernatant • 7. Resuspend beads in 1 mL Detergent-free Wash Buffer (DWB) off magnet and transfer to 2 mL Eppendorf flip-top tube on DynaMag-2 magnet • 8. Magnetise for 3 min then remove supernatant • 9. Resuspend beads in 1 mL Detergent-free Wash Buffer (DWB) off magnet then replace on DynaMag-2 magnet • 10. Magnetise for 3 min then remove supernatant • 11. Resuspend beads in 1 mL DWB, add to new blood culture bottle (using vial adapter) and start incubation (adapter removed)
as §2, §1
(§5) Momentum Capture Beads diluted in the relevant Capture Reagent—50 μL beads:700 μL capture reagent per clean-up • 2. 750 μL of diluted beads added to 50 mL conical centrifuge tube • 3. 5 mL of transfer medium added to tube • 4. 5 mL of spiked blood+abx or blood only added to tube • 5. Incubate on ITL TherMix (32.5° C./30 min/1000 rpm—ramped speed protocol) • 6. Magnetise on V&P magnet for 10 min then remove supernatant • 7. Resuspend beads in 1 mL Detergent-free Wash Buffer (DWB) off magnet and transfer to 2 mL Eppendorf flip-top tube on DynaMag-2 magnet • 8. Magnetise for 3 min then remove supernatant • 9. Resuspend beads in 1 mL Detergent-free Wash Buffer (DWB) off magnet then replace on DynaMag-2 magnet • 10. Magnetise for 3 min then remove supernatant • 11. Resuspend beads in 1 mL DWB, add to an unused blood culture bottle (BioMerieux FA+culture bottle) using vial adapter and start incubation (adapter removed)

Pseudomonas aeruginosa [3] = test: as above; type: cell-based; settings: Meropenem 49 mg/L blood
Method: as §3, §4, §2, §1, §5

E. coli [4] = settings: cited from earlier work
Klebsiella pneumoniae [5] = settings: K. pneumoniae; cited from earlier work
Pseudomonas aeruginosa [6] = settings: P. aeruginosa; cited from earlier work

Which “Flip time” value (E. coli [1]; 900 cfu/5 mL blood) does the source give for C[C@@H](O)[C@H]1C(=O)N2C(C(=O)O)=C(S[C@@H]3CN[C@H](C(=O)N(C)C)C3)[C@H](C)[C@H]12 [Meropenem] here?
The value was 0.56 days.

And the “Flip time” value (E. coli [1]; 150000 cfu/5 mL blood)?
The value was 0.46 days.

What about the “Flip time” value (E. coli [1]; 1500000 cfu/5 mL blood) of the same molecule?
Its value is 0.43 days.

And the “Flip time in Days” value (E. coli [1]; 900 cfu/5 mL blood)?
Its value is “Neg”.

What about the “Flip time in Days” value (E. coli [1]; 150000 cfu/5 mL blood) of the same molecule?
The value was “Neg”.

What about the “Flip time in Days” value (E. coli [1]; 1500000 cfu/5 mL blood) of the same molecule?
The value was “Neg”.

And the “Flip time” value (Klebsiella pneumoniae [2]; 125000 cfu/5 mL blood)?
The value was 0.43 days.

What about the “Flip time” value (Klebsiella pneumoniae [2]; 1250000 cfu/5 mL blood) of the same molecule?
The value was 0.38 days.

And the “Flip time in Days” value (Klebsiella pneumoniae [2]; 125000 cfu/5 mL blood)?
Its value is “Neg”.

And the “Flip time in Days” value (Klebsiella pneumoniae [2]; 1250000 cfu/5 mL blood)?
The value was “Neg”.

And the “Flip time” value (Pseudomonas aeruginosa [3]; Bead rescue, 1250 cfu/5 mL blood)?
The value was 0.81 days.

What about the “Flip time” value (Pseudomonas aeruginosa [3]; Bead rescue, 200000 cfu/5 mL blood) of the same molecule?
Its value is 0.54 days.

What about the “Flip time” value (Pseudomonas aeruginosa [3]; Bead rescue, 2000000 cfu/5 mL blood) of the same molecule?
Its value is 0.46 days.

And the “Flip time in Days” value (Pseudomonas aeruginosa [3]; Control (FA plus bottle), 1250 cfu/5 mL blood)?
The value was “Neg”.

And the “Flip time” value (Pseudomonas aeruginosa [3]; Control (FA plus bottle), 200000 cfu/5 mL blood)?
Its value is 0.9 days.

And the “Flip time” value (Pseudomonas aeruginosa [3]; Control (FA plus bottle), 2000000 cfu/5 mL blood)?
Its value is 0.81 days.

And the “MIC” value (E. coli [4])?
Its value is at most 1 µg/mL.

What about the “MIC” value (Klebsiella pneumoniae [5]) of the same molecule?
The value was at most 1 µg/mL.

And the “MIC” value (Pseudomonas aeruginosa [6])?
Its value is at most 1 µg/mL.

Source: patent US20240210394A1, “MICROORGANISM CAPTURE FROM ANTIMICROBIAL-CONTAINING SOLUTION” (MOMENTUM BIOSCIENCE LIMITED, priority 2019, published 2024)
